The values that follow come from ChEMBL document CHEMBL6153037, “Developing dual-responsive quinolinium prodrugs of 8-hydroxyquinoline by harnessing the dual chelating sites” (Eur J Med Chem, 2025).

Molecules are shown by their SMILES. Calls of active or inactive are those of the source. No cut-off for these calls is given here.

Data set [1] concerns A549. The experiment in a line: Cytotoxicity against human A549 cells in presence of Cu2+ by MTT assay. The format is functional, cell-based. (Tetrazolium dyes change colour on reduction, which living cells bring about.)
For data set [2], the system named is MDA-MB-231. Briefly: Cytotoxicity against human MDA-MB-231 cells in presence of Cu2+ by MTT assay. The format is functional, cell-based.
The subject of data set [3] is MCF-10A. The experiment in a line: Induction of apoptosis in human MCF-10A cells assessed as late apoptotic cells at 0.8 uM incubated for 24 hrs by Annexin V-FITC/PI staining based flow cytometry (reference value: 3.13 %). It is filed as toxicity, cell-based. In general terms: A flow cytometer gives signals particle by particle.
In data set [4] the test system is MCF-10A. The experiment in a line: Induction of apoptosis in human MCF-10A cells assessed as necrotic cells at 0.8 uM incubated for 24 hrs by Annexin V-FITC/PI staining based flow cytometry (reference value: 1.38 %). The format is toxicity, cell-based.
In data set [5] the test system is MDA-MB-231. Briefly: Induction of apoptosis in human MDA-MB-231 cells assessed as late apoptotic cells at 0.8 uM incubated for 24 hrs by Annexin V-FITC/PI staining based flow cytometry (reference value: 5.81 %). The format is functional.
Data set [6] relates to MDA-MB-231. Briefly: Induction of cell cycle arrest in human MDA-MB-231 cells assessed as accumulation at G0/G1 phase in presence of UV by PI staining based flow cytometry (reference value: 43.25 %). It is filed as functional.
The test system of data set [7] is MDA-MB-231. The experiment in a line: Induction of apoptosis in human MDA-MB-231 cells assessed as late apoptotic cells incubated for 24 hrs by Annexin V-FITC/PI staining based flow cytometry (reference value: 2.4 %). It is filed as functional.
The subject of data set [8] is MDA-MB-231. The experiment in a line: Inhibition of mitochondrial membrane potential in human MDA-MB-231 cells incubated for 24 hrs in presence of UV by JC-1 dye based analysis (reference value: 5.51 %). The format is functional.
The nature of data set [9]: Toxicity in BALB/c nude mouse xenografted with human MDA-MB-231 cells assessed as body weight change at 20 mg/kg, iv administered every two days for 21 days. The note with it: in vivo, 504 h, time 21 day. It is filed as organism-based. (In general: A xenograft is tissue or cells of one species grown in another, often human tumour cells in immunodeficient mice.)
Data set [10] has as its system MDA-MB-231. The experiment in a line: Antitumor activity against human MDA-MB-231 cells assessed as sphere-forming efficiency incubated for 6 hrs followed by medium replacement without compound measured after 6 days by microscopic analysis (reference value: 1.07 %). The format is functional.
Data set [11] has as its system MDA-MB-231. Briefly: Induction of cell cycle arrest in human MDA-MB-231 cells assessed as accumulation at G0/G1 phase at 0.8 uM by PI staining based flow cytometry (reference value: 64.6 %). The format is functional.
The subject of data set [12] is MDA-MB-231. The experiment in a line: Induction of apoptosis in human MDA-MB-231 cells assessed as viable cells at 0.8 uM incubated for 24 hrs by Annexin V-FITC/PI staining based flow cytometry (reference value: 86.2 %). It is filed as functional. The note with it: read-out: Activity.
Data set [13] deals with MDA-MB-231. The experiment in a line: Induction of apoptosis in human MDA-MB-231 cells assessed as early apoptotic cells incubated for 24 hrs by Annexin V-FITC/PI staining based flow cytometry (reference value: 1.94 %). The format is functional.
The test system of data set [14] is MCF-10A. The experiment in a line: Induction of apoptosis in human MCF-10A cells assessed as early apoptotic cells at 0.8 uM incubated for 24 hrs by Annexin V-FITC/PI staining based flow cytometry (reference value: 2.96 %). The format is toxicity, cell-based.
For data set [15], the system named is MDA-MB-231. The experiment in a line: Anti-migration activity in human MDA-MB-231 cells at 0.8 uM incubated for 24 hrs by wound healing assay (reference value: 45.4 %). It is filed as functional.
The test system of data set [16] is MDA-MB-231. Briefly: Induction of apoptosis in human MDA-MB-231 cells assessed as necrotic cells incubated for 24 hrs by Annexin V-FITC/PI staining based flow cytometry (reference value: 3.6 %). The format is functional.
The test system of data set [17] is MDA-MB-231. The experiment in a line: Induction of apoptosis in human MDA-MB-231 cells assessed as viable cells incubated for 24 hrs by Annexin V-FITC/PI staining based flow cytometry (reference value: 92.06 %). The format is functional.
Data set [18] relates to MDA-MB-231. Briefly: Induction of apoptosis in human MDA-MB-231 cells assessed as early apoptotic cells at 0.8 uM incubated for 24 hrs by Annexin V-FITC/PI staining based flow cytometry (reference value: 7.39 %). The format is functional.
Data set [19] concerns MCF-10A. Briefly: Inhibition of mitochondrial membrane potential in human MCF-10A cells assessed as increase in green fluorescence at 0.8 uM incubated for 24 hrs by JC-1 dye based analysis. It is filed as toxicity, cell-based.
The test system of data set [20] is MDA-MB-231. Briefly: Inhibition of mitochondrial membrane potential in human MDA-MB-231 cells assessed as increase in green fluorescence at 0.8 uM incubated for 24 hrs by JC-1 dye based analysis. The format is functional, cell-based.
The test system of data set [21] is MDA-MB-231. The experiment in a line: Anti-migration activity in human MDA-MB-231 cells at 0.8 uM incubated for 48 hrs by wound healing assay (reference value: 65.2 %). It is filed as functional.
The nature of data set [22]: Induction of apoptosis in human MCF-10A cells assessed as viable cells at 0.8 uM incubated for 24 hrs by Annexin V-FITC/PI staining based flow cytometry (reference value: 92.5 %). The note with it: read-out: Activity. The format is toxicity, cell-based.
Data set [23] relates to MDA-MB-231. The experiment in a line: Induction of apoptosis in human MDA-MB-231 cells assessed as necrotic cells at 0.8 uM incubated for 24 hrs by Annexin V-FITC/PI staining based flow cytometry (reference value: 0.59 %). It is filed as functional.
Data set [24] concerns MDA-MB-231. The experiment in a line: Cytotoxicity against human MDA-MB-231 cells assessed as decrease in cell viability at 5 uM incubated for 48 hrs by MTT assay relative to control. It is filed as functional.

In the case of `OC[C@H]1O[C@@H](Oc2cccc3cccnc23)[C@H](O)[C@@H](O)[C@@H]1O`, the IC50 in data set [1] and in [2] was 5.56 µM throughout.
In the case of `Oc1cccc2cccnc12` [OXYQUINOLINE], the Activity in data set [3] is 24.4%; in data set [4], 3.39%; in [5] it was 15.6%; in data set [6], 61.23%; in [7], 20.48%; in data set [9], “Non-toxic”. The Activity came to 0.19% in [10]; 78.2% in data set [11]; 33.76% in [13]; 63.2% in [14]; 3.8% in [15]; 2.66% in data set [16]. Moreover, the Activity in data set [17] is 44.1%; in data set [18], 80.5%; in data set [19], “Toxic”; in data set [21], 5.6%; in [23], 0.88%. In data set [8], the “inhibition (INH)” value came to 46.91%. The viability at 0.8 µM in data set [12] is 3.03%. Further, the inhibition entry in data set [20] was “Active”. Moreover, in [22], the viability at 24 h, 0.8 µM turned out to be 8.98%.
In the case of `Br.[N-]=[N+]=Nc1ccc(C[n+]2cccc3cccc(O)c32)cc1`, the Activity in data set [24] is recorded as less than 25%.
